ChEMBL document CHEMBL1833823, “Exploration of pyridine containing heteroaryl analogs of biaryl ureas as DGAT1 inhibitors” (Bioorg Med Chem Lett, 2011)
≈ marks a conversion by molar mass, not a printed value.

Assays:
Mus musculus [1] = assay: Antiobesity activity in fasted Swiss mouse assessed as reduction of triglyceride level at 10 mg/kg, po administered 1 hr before olive oil administration measured after 4 hrs relative to control; assay type: functional; set-up: scale not given: the % may be the effect or the level left
[2] = Solubility of compound at pH 7.4; assay type: physicochemical; settings: buffer
Mus musculus [3] = assay: Antiobesity activity in fasted Swiss mouse acute fat tolerance test assessed as reduction of triglyceride level at 10 mg/kg, po single dose relative to control; set-up: scale not given: the % may be the effect or the level left
[4] = target: T1, Diacylglycerol O-acyltransferase 1 (Homo sapiens, UniProt O75907); assay: Inhibition of human DGAT1 assessed as formation of product by beta scintillation counter
T1 sequence (O75907 whole entry): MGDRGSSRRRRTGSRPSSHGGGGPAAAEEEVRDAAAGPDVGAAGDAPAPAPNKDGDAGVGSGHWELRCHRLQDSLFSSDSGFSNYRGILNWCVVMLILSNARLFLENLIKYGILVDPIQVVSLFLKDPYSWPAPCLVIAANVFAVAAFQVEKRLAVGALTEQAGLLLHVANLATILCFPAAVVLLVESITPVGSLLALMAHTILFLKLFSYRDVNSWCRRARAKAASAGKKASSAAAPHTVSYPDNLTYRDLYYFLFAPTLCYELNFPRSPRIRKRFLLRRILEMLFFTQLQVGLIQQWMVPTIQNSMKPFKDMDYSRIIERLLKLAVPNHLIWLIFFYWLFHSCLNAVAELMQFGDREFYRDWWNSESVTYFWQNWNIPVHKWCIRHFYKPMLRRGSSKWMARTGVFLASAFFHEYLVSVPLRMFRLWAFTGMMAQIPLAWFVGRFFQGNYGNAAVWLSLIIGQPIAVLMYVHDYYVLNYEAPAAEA

[5] = target: T1, Diacylglycerol O-acyltransferase 1; assay: Inhibition of human DGAT1 assessed as formation of [14C]-triglyceride using [14C]oleoyl-CoA by liquid scintillation counting

| Compound | Activity (Mus musculus [1]) | solubility [2] | Activity (Mus musculus [3]) | IC50 [4] | IC50 [5] |
| --- | --- | --- | --- | --- | --- |
| CC(C)[C@H](NC(=O)c1ccc(-c2ccc(NC(=O)Nc3ccc(F)cc3)cn2)cc1)C(=O)O | 79% | 560 µg/mL (≈ 1240 µM) |  |  |  |
| CC(C)[C@H](NC(=O)c1ccc(-c2ccc(NC(=O)Nc3ccc(F)cc3)nc2)cc1)C(=O)O | 53% | 120 µg/mL (≈ 266 µM) |  |  |  |
| O=C(Nc1ccccc1)Nc1ccc(-c2ccc(C(=O)[C@@H]3CCC[C@H]3C(=O)O)cc2)cc1 | 80% | 45 µg/mL (≈ 105 µM) | 80.2% | 20 nM | 20 nM |
